Test results published in patent US6737383B1, “Herbicidal oxadiazolidines” (priority 1999, dated 2004).

Key:
wheat = test: Test B pre/postemergence wheat; type: in vivo, Triticum aestivum
Excerpt: (§1) Seeds of bedstraw (Galium aparine), blackgrass (Alopecurus myosuroides), surinam grass (Brachiaria decumbens), cocklebur (Xanthium strumarium), corn (Zea mays), crabgrass (Digitaria sanguinalis), giant foxtail (Setaria faberii), morningglory (Ipomoea hederacea), pigweed (Amaranthus retroflexus), rape (Brassica napus), soybean (Glycine max), sugar beet (Beta vulgaris), velvetleaf (Abutilon theophrasti), wheat (Triticum aestivum), wild oat (Avena fatua) and purple nutsedge (Cyperus rotundus) tubers were planted and treated preemnergence with test chemicals formulated in a non-phytotoxic solvent mixture which included a surfactant.
(§2) At the same time, these crop and weed species were also treated with postemergence applications of test chemicals formulated in the same manner. Plants ranged in height from 2 to 18 cm (1- to 4-leaf stage) for postemergence treatments. Plant species in the flood test consisted of rice (Oryza sativa), smallflower flatsedge (Cyperus difformis), duck salad (Heteranthera limosa) and bamyardgrass (Echinochloa crus-galli) grown to the 2-leaf stage for testing. Treated plants and controls were maintained in a greenhouse for twelve to sixteen days, after which all species were compared to controls and visually evaluated. Plant response ratings, summarized in Table B, are based on a scale of 0 to 10 where 0 is no effect and 10 is complete control. A dash (−) response means no test result.

surinam grass = test: Test B pre/postemergence surinam grass; type: in vivo, Brachiaria decumbens
Excerpt: as §1, §2

blackgrass = test: Test B pre/postemergence blackgrass; type: in vivo, Alopecurus myosuroides
Excerpt: as §1, §2

crabgrass = test: Test B pre/postemergence crabgrass; type: in vivo, Digitaria sanguinalis
Excerpt: as §1, §2

sugar beet = test: Test B pre/postemergence sugar beet; type: in vivo, Beta vulgaris
Excerpt: as §1, §2

pigweed = test: Test B pre/postemergence pigweed; type: in vivo, Amaranthus retroflexus
Excerpt: as §1, §2

purple nutsedge = test: Test B pre/postemergence purple nutsedge; type: in vivo, Cyperus rotundus; conditions: Postemergence, Rate 500 g/ha; scale 0 to 10, 0 is no effect, 10 is complete control
Excerpt: as §1, §2

wild oat = test: Test B pre/postemergence wild oat; type: in vivo, Avena fatua
Outline: (§3)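 Response is a visual 0-to-10 score relative to untreated plants, where 0 means no effect and 10 means complete control, taken twelve to sixteen days after application. Treatments went onto soil at planting and onto foliage of 1- to 4-leaf plants, using a surfactant-containing non-phytotoxic solvent.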

bedstraw = test: Test B pre/postemergence bedstraw; type: in vivo, Galium aparine; conditions: Preemergence; for Bedstraw plant response rating: scale 0 to 10, 0 is no effect, 10 is complete control
Outline: as §3

giant foxtail = test: Test B pre/postemergence giant foxtail; type: in vivo, Setaria faberii
Excerpt: as §1, §2

velvetleaf = test: Test B pre/postemergence velvetleaf; type: in vivo, Abutilon theophrasti
Excerpt: as §1, §2

morningglory = test: Test B pre/postemergence morningglory; type: in vivo, Ipomoea hederacea
Excerpt: as §1, §2

cocklebur = test: Test B pre/postemergence cocklebur; type: in vivo, Xanthium strumarium
Excerpt: as §1, §2

soybean = test: Test B pre/postemergence soybean; type: in vivo, Glycine max
Excerpt: as §1, §2

rape = test: Test B pre/postemergence rape; type: in vivo, Brassica napus
Excerpt: as §1, §2

corn = test: Test B pre/postemergence corn; type: in vivo, Zea mays
Excerpt: as §1, §2

[1] = Postemergence, Rate 62 g/ha, scale of 0 to 10, 0 is no effect, 10 is complete control
[2] = Postemergence, Rate 125 g/ha, scale 0 to 10, 0 is no effect, 10 is complete control
[3] = Postemergence, Rate 500 g/ha, scale 0 to 10, 0 is no effect, 10 is complete control
[4] = Preemergence, Rate 62 g/ha, scale of 0 to 10 where 0 is no effect and 10 is complete control
[5] = Preemergence, Rate 125 g/ha, scale 0 to 10, 0 is no effect, 10 is complete control
[6] = Preemergence, Rate 500 g/ha, scale of 0 to 10 where 0 is no effect and 10 is complete control
[7] = Preemergence, Rate 250 g/ha, scale 0 to 10, 0 is no effect, 10 is complete control
[8] = Postemergence, Rate 250 g/ha, scale 0 to 10

## CC(C)N(C(=O)n1oc(=O)n(CCc2ccccc2)c1=O)c1ccc(F)cc1F [Compound 508]
wheat; [1]
  Wheat plant response rating: 0
wheat; [2]
  Wheat plant response rating: 0
wheat; [3]
  Plant response rating, Wheat: 0
wheat; [4]
  Plant response rating, Wheat: 0
wheat; [5]
  Wheat plant response rating: 0
wheat; [6]
  Wheat plant response rating: 2
Surinam grass; [1]
  B. signalgrass plant response rating: 0
Surinam grass; [2]
  B. signalgrass plant response rating: 0
Surinam grass; Postemergence, Rate 250 g/ha, scale 0 to 10, 0 no effect, 10 complete control
  B. signalgrass plant response rating: 3
Surinam grass; [3]
  Plant response rating, B. signalgrass: 3
Surinam grass; [4]
  Plant response rating, B. signalgrass: 4
Surinam grass; [5]
  B. signalgrass plant response rating: 7
Surinam grass; [7]
  B. signalgrass plant response rating: 8
Surinam grass; Preemergence, Rate 500 g/ha, scale 0 to 10, 0 is no effect, 10 is complete control
  B. signalgrass plant response rating: 8
blackgrass; [1]
  Blackgrass plant response rating: 0
blackgrass; [2]
  Blackgrass plant response rating: 3
blackgrass; [8]
  Blackgrass plant response rating: 6
blackgrass; [3]
  Plant response rating, Blackgrass: 6
blackgrass; [4]
  Plant response rating, Blackgrass: 1
blackgrass; [5]
  Blackgrass plant response rating: 3
blackgrass; [7]
  Blackgrass plant response rating: 5
blackgrass; [6]
  Blackgrass plant response rating: 8
crabgrass; [1]
  Crabgrass plant response rating: 9
crabgrass; [2]
  Crabgrass plant response rating: 9
crabgrass; [8]
  Crabgrass plant response rating: 9
crabgrass; [3]
  Plant response rating, Crabgrass: 9
crabgrass; [4]
  Plant response rating, Crabgrass: 6
crabgrass; [5]
  Crabgrass plant response rating: 9
crabgrass; [6]
  Crabgrass plant response rating: 10
Sugar beet; [1]
  Sugarbeets plant response rating: 0
Sugar beet; [2]
  Sugarbeets plant response rating: 1
Sugar beet; [3]
  Plant response rating, Sugarbeets: 9
Sugar beet; [4]
  Plant response rating, Sugarbeets: 1
Sugar beet; [5]
  Sugarbeets plant response rating: 1
Sugar beet; [6]
  Sugarbeets plant response rating: 6
pigweed; [1]
  Redroot pigweed plant response rating: 3
pigweed; [2]
  Redroot pigweed plant response rating: 7
pigweed; [3]
  Plant response rating, Redroot pigweed: 9
pigweed; [4]
  Plant response rating, Redroot pigweed: 7
pigweed; [5]
  Redroot pigweed plant response rating: 8
pigweed; [6]
  Redroot pigweed plant response rating: 10
Purple nutsedge
  Plant response rating, Nutsedge: 0
Wild oat; [1]
  Wild oats plant response rating: 0
Wild oat; [2]
  Wild oats plant response rating: 0
Wild oat; [3]
  Plant response rating, Wild oats: 4
Wild oat; [4]
  Plant response rating, Wild oats: 3
Wild oat; [5]
  Wild oats plant response rating: 4
Wild oat; [6]
  Wild oats plant response rating: 7
bedstraw; Rate 62 g/ha, scale of 0 to 10 where 0 is no effect and 10 is complete control
  Plant response rating, Bedstraw: 0
bedstraw; Rate 125 g/ha
  Bedstraw plant response rating: 0
bedstraw; Rate 250 g/ha
  Bedstraw plant response rating: 0
bedstraw; Rate 500 g/ha
  Bedstraw plant response rating: 0
Giant foxtail; [1]
  Giant foxtail plant response rating: 8
Giant foxtail; [2]
  Giant foxtail plant response rating: 8
Giant foxtail; [3]
  Plant response rating, Giant foxtail: 8
Giant foxtail; [4]
  Plant response rating, Giant foxtail: 10
Giant foxtail; [5]
  Giant foxtail plant response rating: 10
Giant foxtail; [6]
  Giant foxtail plant response rating: 10
velvetleaf; [1]
  Velvetleaf plant response rating: 0
velvetleaf; [2]
  Velvetleaf plant response rating: 1
velvetleaf; [3]
  Plant response rating, Velvetleaf: 2
velvetleaf; [4]
  Plant response rating, Velvetleaf: 0
velvetleaf; [5]
  Velvetleaf plant response rating: 0
velvetleaf; [6]
  Velvetleaf plant response rating: 0
morningglory; [1]
  Morningglory plant response rating: 3
morningglory; [2]
  Morningglory plant response rating: 3
morningglory; [3]
  Plant response rating, Morningglory: 7
morningglory; [4]
  Plant response rating, Morningglory: 0
morningglory; [5]
  Morningglory plant response rating: 0
morningglory; [6]
  Morningglory plant response rating: 0
cocklebur; [1]
  Cocklebur plant response rating: 0
cocklebur; [2]
  Cocklebur plant response rating: 1
cocklebur; [8]
  Cocklebur plant response rating: 4
cocklebur; [3]
  Plant response rating, Cocklebur: 4
cocklebur; [4]
  Plant response rating, Cocklebur: 0
cocklebur; [5]
  Cocklebur plant response rating: 0
cocklebur; [7]
  Cocklebur plant response rating: 0
cocklebur; [6]
  Cocklebur plant response rating: 0
soybean; [1]
  Soybean plant response rating: 4
soybean; [2]
  Soybean plant response rating: 4
soybean; [3]
  Plant response rating, Soybean: 5
soybean; [4]
  Plant response rating, Soybean: 0
soybean; [5]
  Soybean plant response rating: 0
soybean; [6]
  Soybean plant response rating: 0
rape; [1]
  Rape plant response rating: 1
rape; [2]
  Rape plant response rating: 5
rape; [3]
  Plant response rating, Rape: 8
rape; [4]
  Plant response rating, Rape: 0
rape; [5]
  Rape plant response rating: 0
rape; [6]
  Rape plant response rating: 3
corn; [1]
  Corn plant response rating: 0
corn; [2]
  Corn plant response rating: 0
corn; [8]
  Corn plant response rating: 0
corn; [3]
  Plant response rating, Corn: 3
corn; [4]
  Plant response rating, Corn: 0
corn; [5]
  Corn plant response rating: 0
corn; [6]
  Corn plant response rating: 4
